Experimental data as given in US10100030B2 (Kissei Pharmaceutical Co., Ltd., priority 2013, dated 2018).

Assays:
human NK1 receptor [1] = biological target: T1, human NK1 receptor (Homo sapiens (Human), UniProt P25103); assay: Affinity for human NK1 receptor (125I-substance P receptor binding test); details: membrane fraction of human NK1 receptor-expressing 293T cells; read-out: IC50 (concentration required for 50% inhibition of 125I-substance P binding)
Experimental: Affinity for Human NK1 Receptor
(3) Measurement of Binding Affinity to Human NK1 Receptor
(3-1) Preparation of Membrane Fraction from Human NK1 Receptor-expressing Cells
Human NK1 receptor-expressing cells were prepared in a 175 cm^2 culture flask (Nippon Becton Dickinson). The formation of a complex of the human NK1 receptor expression plasmid and Lipofectamine 2000 was performed by calculating the culture area ratio and increasing the scale of the method described in the above 2-4 by the ratio. The human NK1 receptor-expressing cells were collected in a buffer solution for the membrane fraction preparation (50 mM Tris (Wako Pure Chemical). 120 mM sodium chloride (Wako Pure Chemical Industries), 5 mM potassium chloride (Wako Pure Chemical Industries), 1 mM ethylenediaminetetraacetic acid (Sigma), 0.002 mg/mL chymostatin (Peptide Institute), 0.04 mg/ bacitracin (Wako Pure Chemical Industries), 0.005 mg/mL phosphoramidon (Peptide Institute) and 0.5 mM phenylmethylsulfonyl fluoride (Wako Pure Chemical Industries), pH7.4) and centrifuged at 1,880 g for 10 minutes, and the cell sediment was suspended in the buffer solution for the membrane fraction preparation. After freezing and thawing the cells once, the cells were homogenized using a Dounce-type homogenizer (cooled on ice, 1000 rpm, 20 times). The homogenized cell suspension was centrifuged at 20,000 rpm for 10 minutes, and the supernatant was removed to obtain cell sediment. The cell sediment was suspended again in the buffer solution for the membrane fraction preparation and homogenized using a Dounce-type homogenizer (cooled on ice, 1000 rpm, 30 times). The cell suspension was centrifuged at 20,000 rpm for 10 minutes, and the supernatant was removed to obtain cell sediment. The same homogenization and centrifugation were repeated again, and final cell sediment was obtained. The final cell sediment was suspended in a buffer solution for the receptor binding test (50 mM Tris (Wako Pure Chemical Industries), 3 mM manganese chloride (Wako Pure Chemical Industries), 0.002 mg/mL chymostatin (Peptide Institute), 0.04 mg/bacitracin (Wako Pure Chemical Industries) and 0.02% bovine serum albumin (Sigma), pH 7.4), and the protein concentration was measured using BCA Protein Assay Kit (Pierce).
(3-2) Receptor Binding Test
The buffer solution for the receptor binding test was dispensed to the wells of a 96-well assay plate (Greiner) at 22.5 μL/well. DMSO solutions of a test compound, which were prepared at an 80-time higher concentration using 100% dimethyl sulfoxide (DMSO), were added to the wells at 2.5 μL/well (final concentrations of 1 nM to 100 nM), and the solutions were mixed. As a radiolabeled ligand, ^125I-substance P (Substance P, [^125I]Tyr^8-, PerkinElmer) was used. ^125I-substance P was diluted with the buffer solution for the receptor binding test to a concentration resulting in […] and added to the 96-well assay plate, and the solutions were mixed. The membrane fraction prepared from the human NK1 receptor-expressing cells was diluted with the buffer solution for the receptor binding test to a concentration resulting in 8 to 10 μg/well, suspended until the suspension became in such a homogenous state that the suspension could flow through as 27G injection needle smoothly and then added to the 96-well assay plate at 150 μL/well. Then, the plate was incubated at room temperature for 60 minutes while shaking the plate. The reaction solutions were suction-filtered. through a multiscreen 96-well filter plate (Millipore) which had been pre-treated with 0.3% polyethyleneimine, and the reaction was terminated by washing with a washing solution (50 mM Tris and 0.02% bovine serum albumin, pH 7.4) four times. The bottom of the microplate was dried at 60° C., and then 100 μL/well of MicroScint 20 (PerkinElmer) was dispensed to the wells. The top of the plate was sealed with TopSeal A (PerkinElmer), and the plate was shaken for 5 to 10 minutes. […]

CYP3A4 = CYP3A4 (Homo sapiens (Human), UniProt P08684); assay: Inhibitory effect on CYP3A4 (Luciferin-IPA); details: read-out: IC50 (CYP3A4 inhibition); 30-minute pre-incubation group
Experimental: Enzyme reaction was performed by incubating in a potassium phosphate buffer solution (pH 7.4) containing 1 nM to 20 μM test compound, 3.2 mM magnesium chloride, 0.2 pmol human CYP3A4 (BD Biosciences), 0.5 mM reduced nicotinamide adenine dinucleotide phosphate (NADPH) and 3 μM Luciferin-IPA (Promega) at 37° C. for 10 minutes. The volume of the reaction solution was 50 μL/well. The 30-minute pre-incubation group was incubated at 37° C. for 30 minutes before adding the substrate, the Luciferin-IPA solution (12.5 μL/well). At the end of the enzyme reaction, 50 μL/well of a Luciferin detection reagent (Promega) was added to the wells, and the plate was left at room temperature for 20 minutes. Then, the emission intensities were measured with Infinite M1000 (TECAN). The enzyme activities (%) relative to the value of the group to which the test compound was not added were calculated.

human NK1 receptor [2] = biological target: T1, human NK1 receptor; assay: Inhibitory effect on human NK1 receptor (substance P-induced increase in intracellular calcium concentration); format: cell-based; details: HEK-293T; substance P 1 μM, compound 0.1 μM; human NK1 receptor-expressing 293T cells; read-out: SPRR (Substance P-Response Remaining)
Experimental: Inhibitory Effect on Human NK1 Receptor
(1) Preparation of Human NK1 Receptor-expressing Cells
Human NK1 receptor-expressing cells were prepared by the same methods as those described in 2-3 and 2-4 of Test Example 1.
(2) Study on Inhibitory Effect on Increase in Intracellular Calcium Concentration
The human NK1 receptor-expressing cells were washed with 300 μL/well of a washing solution (20 mM HEPES/Hank's Balanced Salt Solution (HBSS) […]). A fluorescent calcium indicator (Fluo-4 Direct Calcium Assay Kit, Life Technologies, containing 0.42 mM probenecid and 0.1% bovine serum albumin, prepared according to the protocol of the product) was added to the wells at 150 μL/well, and the plate was incubated at 37° C. for 30 minutes in an incubator. Then, DMSO solutions of a test compound, which were prepared at an 80-time higher concentration using 100% dimethyl sulfoxide (DMSO), were added to the wells at 2.5 μL/well (final concentrations of 0.1, 1 and 10 μM), and the solutions were mixed. Then, the plate was further incubated at 37° C. for 30 minutes in an incubator. After 30 minutes, the intracellular calcium concentrations were measured immediately.
The intracellular calcium concentrations were each measured as a fluorescent signal using FDSS (registered trademark) 7000 (Hamamatsu Photonics). A substance P (Peptide Institute, Inc.) solution which was prepared at 0.4 μM or 4 μM using an assay buffer (20 mM HEPES/Hank's Balanced Salt Solution (HBSS) pH 7.3, containing 0.1% bovine serum albumin) was added automatically to each well at 50 μL/well (final concentration of 0.1 or 1 μM) 10 seconds after starting reading, and the fluorescent signal was measured up to 120 seconds.
The intracellular calcium concentration (%) of the cells to which a test compound was added was calculated by the equation below, where the fluorescent signal of the group to which the vehicle (DMSO) was added was regarded as 100%, and the fluorescent signal before the addition of substance P was regarded as 0%. Intracellular calcium concentration(%)=(Fluorescent signal of test compound addition group)/(Fluorescent signal of vehicle addition group)×100
The intracellular calcium concentration (%) calculated was regarded as the remaining agonist activity of substance P (Substance P-Response Remaining: SPRR). In the table, Ex. No. means the Example number. SPRR (%) is the value obtained when the concentration of substance P was 1 μM and the concentration of the compound was 0.1 μM.

T1 sequence (P25103 whole entry): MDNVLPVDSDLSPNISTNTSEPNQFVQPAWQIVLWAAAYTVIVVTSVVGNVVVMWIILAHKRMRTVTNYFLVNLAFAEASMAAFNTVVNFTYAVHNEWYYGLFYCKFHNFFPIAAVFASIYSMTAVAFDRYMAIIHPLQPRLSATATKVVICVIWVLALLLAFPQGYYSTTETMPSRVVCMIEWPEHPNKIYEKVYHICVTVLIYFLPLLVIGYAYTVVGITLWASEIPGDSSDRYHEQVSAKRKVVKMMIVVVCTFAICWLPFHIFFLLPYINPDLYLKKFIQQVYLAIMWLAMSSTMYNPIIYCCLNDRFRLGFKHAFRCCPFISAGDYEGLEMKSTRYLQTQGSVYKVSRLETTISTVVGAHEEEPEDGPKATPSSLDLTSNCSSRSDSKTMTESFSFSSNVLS
CYP3A4, sequence (P08684 whole entry): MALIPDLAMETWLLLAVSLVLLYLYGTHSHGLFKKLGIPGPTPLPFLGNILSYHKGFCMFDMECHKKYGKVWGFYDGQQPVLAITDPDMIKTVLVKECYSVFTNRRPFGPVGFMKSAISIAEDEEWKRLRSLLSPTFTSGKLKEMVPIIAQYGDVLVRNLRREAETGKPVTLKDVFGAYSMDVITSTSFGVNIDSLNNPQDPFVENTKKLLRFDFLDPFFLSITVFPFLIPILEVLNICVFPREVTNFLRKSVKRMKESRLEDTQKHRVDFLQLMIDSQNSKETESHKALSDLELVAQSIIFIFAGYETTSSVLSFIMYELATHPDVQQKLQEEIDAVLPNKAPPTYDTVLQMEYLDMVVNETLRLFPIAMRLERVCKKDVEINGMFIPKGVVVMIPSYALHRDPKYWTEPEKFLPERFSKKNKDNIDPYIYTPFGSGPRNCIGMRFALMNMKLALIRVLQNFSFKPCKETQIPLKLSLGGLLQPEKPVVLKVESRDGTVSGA

**Q.** Which results are given for Cc1cc(F)ccc1-c1cc(N2CCC(CC(=O)O)CC2)ncc1N(C)C(=O)C(C)(C)c1cc(C(F)(F)F)cc(C(F)(F)F)c1 [Example 1]?
**A.** IC50 (human NK1 receptor [1]): 0.00211 µM; IC50 (CYP3A4): 6.2 µM; remaining activity at 0.1 µM (human NK1 receptor [2]): 28%
